As usually defined, the IC50 is the concentration that gives 50% inhibition.

For nine compounds, IC50 results are on record in US7541367B2, “3-benzoimidazolyl-pyrazolopyridines useful in treating kinase disorders” (Janssen Pharmaceutica, N.V., priority 2005, dated 2009).

One assay has as its target T1, Lyn kinase (Homo sapiens, UniProt P07948).
T1 construct: purchased Upstate Biotechnology, Lake Placid, N.Y
The assay is described as follows: Lyn Kinase Assay. In kind it is biochemical. The conditions noted are these: 5 μM ATP. As for the experimental part: Test compound in 100% DMSO (0.5 μL) was added to the appropriate wells. Diluted Lyn kinase (human) (Accession Number EMBL M16038) (Upstate Biotechnology, Lake Placid, N.Y.) (diluted in a buffer consisting of 50 mM Tris at pH 7.5, 0.1 mM EGTA, Sodium Vanadate (0.1 mM), β-mercaptoethanol (0.1%) and 1 mg/mL bovine serum albumin) (2.5 μL) was added to the wells to initiate the reactions.
The reaction plates were incubated at 30° C. for 40 min. The reaction was terminated by the addition of a 3% phosphoric acid solution (5 μL). The reaction product (10 μL) was spotted onto a P30 filtermat and washed for 5 minutes in phosphoric acid (75 mM). The wash sequence was repeated two more times, followed with one final wash in methanol. The plates were then dried, sealed and read on the TopCount scintillation counter after adding 30 μL scintillation fluid.
(§1) A maximum and minimum signal for the assay was determined on each plate. The percent inhibition of a test compound was calculated according to the formula: […]
For a series of test concentrations, the IC50 was derived by graphing percent inhibition against the log of the concentrations tested for a given compound with results shown in Table 3
(§2) For compounds with multiple values, each value represents a separate assay result.

The target of another assay is T2, c-Src kinase (Homo sapiens, UniProt P12931).
T2 construct: purchased Upstate Biotechnology, Lake Placid, N.Y
The assay is described as follows: c-Src Kinase Assay. It is filed as biochemical. To be noted: 5 μM ATP. The procedure: A mixture of a 10× kinase buffer (80 mM MOPS at pH 7.0, 2 mM EDTA and 100 mM Magnesium Chloride), ATP (5 μM final from a 10 mM stock), a Cdc2 peptide […] (100 μM final from a 2.5 mM stock), γ-^33P ATP (10 μCi/μL stock) and water (for a total of 20 μL/well) was added to each well of a Streptavidin Flashplate.
Test compound in 100% DMSO (0.5 μL) was added to the appropriate wells. Diluted c-Src kinase (human) (Accession Number SWISS-PROT P12931) (Upstate Biotechnology, Lake Placid, N.Y.) (diluted in a buffer consisting of 20 mM MOPS at pH 7.0, 1 mM EDTA, β-mercaptoethanol (0.1%), Brij-35 (0.01%), glycerol (5%), and 1 mg/mL bovine serum albumin) (2.5 μL) was added to the wells to initiate the reactions. The reaction plates were incubated at 30° C. for 40 min. The reaction was terminated by the addition of a 3% phosphoric acid solution (5 μL). The reaction product (10 μL) was spotted onto a P30 filtermat and washed for 5 minutes in phosphoric acid (75 mM). The wash sequence was repeated two more times, followed with one final wash in methanol. The plates were then dried, sealed and read on the TopCount scintillation counter after adding 30 μL scintillation fluid.
as §1
For a series of test concentrations, the IC50 was derived by graphing percent inhibition against the log of the concentrations tested for a given compound with results shown in Table 2
as §2

Another assay concerns the target T3, HER2 (Homo sapiens, UniProt P04626).
T3 construct: GST (Glutathione-S-Transferase) (N); HIS6 (N); thrombin cleavage site (N); purchased Proqinase, Freiburg, Germany
Nature of the assay: HER2 kinase screening assay (33P-ATP FlashPlate).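 Also: Biotin-poly(GT) 4:1 peptide captured on streptavidin FlashPlate, 33P transfer from γ-ATP read by scintillation counting, lower incorporation means inhibition, 1% DMSO final, 100 µL reaction.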 It is filed as biochemical. To be noted: GST-HIS6 HER-2 aa 679 to 1255; 10 μM ATP; 1 hr at 30° C.

The next assay addresses T4, RET (Homo sapiens, UniProt P07949).
T4 construct: polyhistidine (N)
T4 sequence (P07949 658-1114 limits assumed): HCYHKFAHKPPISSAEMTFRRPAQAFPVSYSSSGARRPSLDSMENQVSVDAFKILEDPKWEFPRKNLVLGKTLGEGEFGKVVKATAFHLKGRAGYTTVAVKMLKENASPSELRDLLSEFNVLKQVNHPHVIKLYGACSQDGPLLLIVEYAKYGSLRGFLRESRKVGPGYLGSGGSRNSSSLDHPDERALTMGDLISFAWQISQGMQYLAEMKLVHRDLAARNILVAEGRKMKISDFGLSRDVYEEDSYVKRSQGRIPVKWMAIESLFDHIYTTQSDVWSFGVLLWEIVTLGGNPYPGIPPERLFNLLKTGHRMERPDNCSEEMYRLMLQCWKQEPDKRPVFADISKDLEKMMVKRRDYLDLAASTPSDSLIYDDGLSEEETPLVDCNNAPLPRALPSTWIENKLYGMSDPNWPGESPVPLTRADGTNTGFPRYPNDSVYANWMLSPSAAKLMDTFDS
Nature of the assay: RET kinase screening assay (33P-ATP FlashPlate).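 Also: biotinylated peptide substrate captured on streptavidin FlashPlate, 33P phosphate transfer read by scintillation counting, 1% DMSO, lower incorporation means inhibition, percent relative to per-plate maximum and minimum signals.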 To be noted: human RET kinase domain; 10 μM ATP; 1 hr at 30° C. It is filed as biochemical.

The subject of a further assay is HCT-116 colon carcinoma. Nature of the assay: Cell Proliferation Inhibition Assay (14C-thymidine incorporation), HCT-116.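 Also: proliferation measured as methyl 14C-thymidine uptake into new DNA, counted in 96-well scintillating microplates, compared with DMSO-only control wells.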 In kind it is cell-based. To be noted: Homo sapiens, HCT-116, HCT-116 cells. (In general: Dividing cells build labelled thymidine or BrdU into new DNA.)
The target of the next assay is T5, CDK1 (Homo sapiens, UniProt P06493).
T5 construct: purchased New England Biolabs, Beverly, Mass; 6020; host or cells: insect cells
The assay is described as follows: CDK-1 kinase screening assay (33P-ATP FlashPlate). It is filed as biochemical. The conditions noted are these: human CDK1 with cyclin B; 10 μM ATP; 1 hr at 30° C.

The next assay concerns the target T6, VEGF-R2 (Rattus norvegicus, UniProt O08775).
T6 construct: polyhistidine (N)
The assay is described as follows: VEGF-R2 kinase screening assay (33P-ATP FlashPlate).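 Also: Read-out is ³³P incorporation from ³³P-γ-ATP into biotinylated peptide substrate captured on streptavidin FlashPlate, counted by scintillation, 1% DMSO final, inhibition scaled between per-plate maximum and minimum signals.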 In kind it is biochemical. The conditions noted are these: rat VEGF-R2 kinase domain; 10 μM ATP; 1 hr at 30° C.

In assay [1] the test system is HeLa cervical adenocarcinoma. The assay is described as follows: Cell Proliferation Inhibition Assay (14C-thymidine incorporation), HeLa.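 Also: test compound in DMSO added to cells seeded in scintillating 96-well plates, DMSO-only wells as control, uptake of methyl 14C-thymidine into new DNA counted.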 In kind it is cell-based. The conditions noted are these: Homo sapiens, HeLa, HeLa cells.
Another assay addresses T7, Aurora-A (Mus musculus, UniProt P97477).
T7 construct: polyhistidine (N)
T7 sequence (P97477 1-395): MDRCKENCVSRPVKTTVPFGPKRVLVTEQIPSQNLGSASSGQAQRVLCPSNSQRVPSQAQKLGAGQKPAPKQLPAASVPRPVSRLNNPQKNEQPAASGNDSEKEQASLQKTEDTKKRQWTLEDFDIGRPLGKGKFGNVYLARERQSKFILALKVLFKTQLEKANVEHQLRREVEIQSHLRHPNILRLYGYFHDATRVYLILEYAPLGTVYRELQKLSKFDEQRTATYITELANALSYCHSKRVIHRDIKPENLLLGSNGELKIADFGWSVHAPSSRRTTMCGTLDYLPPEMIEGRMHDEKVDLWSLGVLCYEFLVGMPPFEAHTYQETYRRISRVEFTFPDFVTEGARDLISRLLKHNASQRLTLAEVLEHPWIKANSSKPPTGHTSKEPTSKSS
The assay is described as follows: Aurora-A kinase screening assay (33P-ATP FlashPlate).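 Also: His-tagged mouse Aurora-A phosphorylating a biotinylated peptide captured on streptavidin plates, read as 33P uptake by scintillation counting, 1% DMSO, inhibition scaled between per-plate maximum and minimum signals.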 It is filed as biochemical. The conditions noted are these: 10 μM ATP, 1 hr at 30° C.

The next assay concerns A375 malignant melanoma. Nature of the assay: Cell Proliferation Inhibition Assay (14C-thymidine incorporation), A375.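 Also: proliferation measured by radiolabelled thymidine uptake into new DNA, counted in scintillating 96-well plates, compound-treated wells compared with DMSO-only control wells.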 In kind it is cell-based. To be noted: Homo sapiens, A-375, A375 cells.

T6 sequence (O08775 786-1343): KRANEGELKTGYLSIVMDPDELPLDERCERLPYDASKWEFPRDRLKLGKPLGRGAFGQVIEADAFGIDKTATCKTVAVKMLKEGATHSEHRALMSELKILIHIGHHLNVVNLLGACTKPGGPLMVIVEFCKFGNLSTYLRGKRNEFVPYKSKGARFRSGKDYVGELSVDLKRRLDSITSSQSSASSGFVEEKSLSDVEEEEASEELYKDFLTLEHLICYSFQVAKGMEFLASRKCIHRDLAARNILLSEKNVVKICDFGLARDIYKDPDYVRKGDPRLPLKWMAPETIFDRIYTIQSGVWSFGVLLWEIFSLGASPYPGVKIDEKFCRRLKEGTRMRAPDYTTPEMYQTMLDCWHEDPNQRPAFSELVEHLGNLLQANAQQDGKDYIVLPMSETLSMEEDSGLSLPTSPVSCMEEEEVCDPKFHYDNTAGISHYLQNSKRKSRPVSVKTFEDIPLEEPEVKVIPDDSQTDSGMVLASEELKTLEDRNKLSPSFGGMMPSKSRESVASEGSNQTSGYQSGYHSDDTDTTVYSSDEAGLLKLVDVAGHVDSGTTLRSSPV
T5 sequence (P06493 whole entry): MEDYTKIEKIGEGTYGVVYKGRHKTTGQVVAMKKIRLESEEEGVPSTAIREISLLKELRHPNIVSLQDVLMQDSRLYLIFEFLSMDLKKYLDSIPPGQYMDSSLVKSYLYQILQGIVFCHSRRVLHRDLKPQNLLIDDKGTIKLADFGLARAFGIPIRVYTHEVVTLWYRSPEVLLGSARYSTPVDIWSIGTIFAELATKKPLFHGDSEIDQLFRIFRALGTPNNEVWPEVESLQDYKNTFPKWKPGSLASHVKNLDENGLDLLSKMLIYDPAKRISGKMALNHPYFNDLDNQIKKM
T5 sequence (P14635 whole entry partner): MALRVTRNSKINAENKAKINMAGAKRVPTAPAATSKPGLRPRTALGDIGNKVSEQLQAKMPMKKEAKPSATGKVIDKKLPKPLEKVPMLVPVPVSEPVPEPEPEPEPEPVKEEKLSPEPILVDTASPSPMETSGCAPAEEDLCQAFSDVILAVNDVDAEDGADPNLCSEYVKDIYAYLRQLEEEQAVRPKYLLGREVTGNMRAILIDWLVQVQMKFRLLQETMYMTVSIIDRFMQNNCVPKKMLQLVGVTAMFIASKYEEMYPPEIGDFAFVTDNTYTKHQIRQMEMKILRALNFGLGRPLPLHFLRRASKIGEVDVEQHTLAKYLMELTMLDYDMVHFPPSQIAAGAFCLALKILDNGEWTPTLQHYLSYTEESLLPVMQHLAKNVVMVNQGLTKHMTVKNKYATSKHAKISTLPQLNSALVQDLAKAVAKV
T1 sequence (P07948 whole entry): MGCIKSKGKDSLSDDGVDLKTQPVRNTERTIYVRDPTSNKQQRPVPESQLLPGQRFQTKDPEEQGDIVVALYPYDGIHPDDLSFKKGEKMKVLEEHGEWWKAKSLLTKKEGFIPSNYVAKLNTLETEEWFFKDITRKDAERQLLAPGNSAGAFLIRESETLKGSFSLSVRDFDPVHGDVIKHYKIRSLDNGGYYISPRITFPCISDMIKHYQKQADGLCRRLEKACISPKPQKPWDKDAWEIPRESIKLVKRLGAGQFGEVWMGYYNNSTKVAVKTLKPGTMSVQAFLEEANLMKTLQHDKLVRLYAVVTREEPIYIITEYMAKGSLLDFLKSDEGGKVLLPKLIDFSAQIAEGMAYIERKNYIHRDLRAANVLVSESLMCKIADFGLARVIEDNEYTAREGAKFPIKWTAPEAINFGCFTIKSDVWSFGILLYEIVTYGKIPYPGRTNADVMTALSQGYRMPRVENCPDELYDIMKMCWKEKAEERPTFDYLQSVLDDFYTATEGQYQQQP
T2 sequence (P12931 whole entry): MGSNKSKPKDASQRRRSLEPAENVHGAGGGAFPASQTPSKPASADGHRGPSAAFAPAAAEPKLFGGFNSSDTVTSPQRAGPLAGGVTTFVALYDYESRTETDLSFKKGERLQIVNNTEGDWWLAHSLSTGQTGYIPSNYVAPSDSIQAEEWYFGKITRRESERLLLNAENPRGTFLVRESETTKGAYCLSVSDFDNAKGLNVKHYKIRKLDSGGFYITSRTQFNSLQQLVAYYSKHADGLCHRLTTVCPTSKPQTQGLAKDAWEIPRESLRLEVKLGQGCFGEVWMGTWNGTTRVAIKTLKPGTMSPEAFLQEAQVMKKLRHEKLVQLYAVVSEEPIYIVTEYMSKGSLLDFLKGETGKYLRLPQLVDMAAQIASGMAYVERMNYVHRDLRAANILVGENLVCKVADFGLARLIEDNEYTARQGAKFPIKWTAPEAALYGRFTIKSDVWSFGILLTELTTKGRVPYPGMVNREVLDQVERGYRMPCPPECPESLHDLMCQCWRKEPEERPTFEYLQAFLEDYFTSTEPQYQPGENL
T3 sequence (P04626 679-1255): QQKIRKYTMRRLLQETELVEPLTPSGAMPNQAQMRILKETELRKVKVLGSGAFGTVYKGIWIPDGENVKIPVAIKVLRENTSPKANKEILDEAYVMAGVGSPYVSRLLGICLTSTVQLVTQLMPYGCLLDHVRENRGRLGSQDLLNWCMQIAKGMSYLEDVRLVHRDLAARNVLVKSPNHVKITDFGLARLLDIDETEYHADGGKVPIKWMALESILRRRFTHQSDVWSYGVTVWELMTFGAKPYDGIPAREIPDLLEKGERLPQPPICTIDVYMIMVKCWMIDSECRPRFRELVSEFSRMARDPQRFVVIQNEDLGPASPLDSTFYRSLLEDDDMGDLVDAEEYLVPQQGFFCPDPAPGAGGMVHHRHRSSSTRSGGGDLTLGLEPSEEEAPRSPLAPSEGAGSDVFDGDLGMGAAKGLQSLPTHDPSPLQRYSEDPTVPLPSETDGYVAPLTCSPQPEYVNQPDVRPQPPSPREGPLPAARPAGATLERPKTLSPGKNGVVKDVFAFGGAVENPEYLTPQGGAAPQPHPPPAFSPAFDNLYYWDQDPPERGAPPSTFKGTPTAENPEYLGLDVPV

Turning to `COCc1cccc2[nH]c(-c3nn(C)c4ncc(-c5cncc6ccccc56)cc34)nc12` [Cpd 33, 4-[3-(4-methoxymethyl-1H-benzoimidazol-2-yl)-1-methyl-1H-pyrazolo[3,4-b]pyridin-5-yl]-isoquinoline], the IC50 was 1.14 µM at Lyn kinase; 1.17 µM against c-Src kinase; > 100 µM on HER2; > 100 µM on RET; 0.203 µM with HCT-116 colon carcinoma; 0.123 µM against CDK1. Also, the IC50 against VEGF-R2 was > 100 µM; in [1], 1.18 µM; against Aurora-A, ~100 µM; with A375 malignant melanoma, 0.256 µM.

With `COCc1cccc2[nH]c(-c3n[nH]c4ncc(-c5cncc(CNC(C)C)c5)cc34)nc12` [Cpd 43, isopropyl-{5-[3-(4-methoxymethyl-1H-benzoimidazol-2-yl)-1H-pyrazolo[3,4-b]pyridin-5-yl]-pyridin-3-ylmethyl}-amine], the IC50 at Lyn kinase is 0.132 µM; on c-Src kinase, 0.836 µM; on HER2, > 10 µM; on RET it was 2.23 µM; in the assay on HCT-116 colon carcinoma it was 0.131 µM; on CDK1 it was 0.0291 µM. Also, the IC50 at VEGF-R2 worked out at 0.683 µM; in assay [1], 0.18 µM; against Aurora-A, 6.58 µM; with A375 malignant melanoma, 0.166 µM.

In the case of `COCc1cccc2[nH]c(-c3n[nH]c4ncc(-c5cncc(CO)c5)cc34)nc12` [Cpd 44, {5-[3-(4-methoxymethyl-1H-benzoimidazol-2-yl)-1H-pyrazolo[3,4-b]pyridin-5-yl]-pyridin-3-yl}-methanol], the 50% inhibitory concentration (IC50) at Lyn kinase was 0.379 µM; against c-Src kinase it was 0.288 µM; against HER2 it was > 100 µM; on RET, ~10 µM; in the assay on HCT-116 colon carcinoma, 0.128 µM; against CDK1, 0.0889 µM. The IC50 at VEGF-R2 is 0.341 µM; in assay [1] it was 0.771 µM; on Aurora-A, > 1 µM; with A375 malignant melanoma, 0.357 µM.

Turning to `NC1CCC(NC(=O)c2cccc3[nH]c(-c4n[nH]c5ncc(-c6cncc7ccccc67)cc45)nc23)CC1` (stereo not drawn) [Cpd 45, 2-(5-isoquinolin-4-yl-1H-pyrazolo[3,4-b]pyridin-3-yl)-1H-benzoimidazole-4-carboxylic acid (4-amino-cyclohexyl)-amide], the IC50 at Lyn kinase is 0.00133 µM; on c-Src kinase, 0.000653 µM; against HER2, 31 µM; at RET, > 100 µM; with HCT-116 colon carcinoma it was > 10 µM; at CDK1, 0.0349 µM. Besides, the IC50 is > 0.1 µM against VEGF-R2, 7.53 µM in assay [1], 0.04 µM at Aurora-A and 28.5 µM with A375 malignant melanoma.

Regarding `Cc1ccccc1NC(=O)c1cccc2[nH]c(-c3n[nH]c4ncc(-c5cncc6ccccc56)cc34)nc12` [Cpd 46, 2-(5-isoquinolin-4-yl-1H-pyrazolo[3,4-b]pyridin-3-yl)-1H-benzoimidazole-4-carboxylic acid o-tolylamide], the IC50 on Lyn kinase is 0.00631 µM; against c-Src kinase it was 0.0014 µM; on HER2, ~100 µM; at RET, ~10 µM; with HCT-116 colon carcinoma, 0.225 µM; on CDK1, 0.0806 µM. The IC50 came out at 0.702 µM at VEGF-R2, 0.159 µM in assay [1], 0.23 µM on Aurora-A and 0.195 µM in the assay with A375 malignant melanoma.

`O=C(Nc1cccnc1)c1cccc2[nH]c(-c3n[nH]c4ncc(-c5cncc6ccccc56)cc34)nc12` [Cpd 48, 2-(5-isoquinolin-4-yl-1H-pyrazolo[3,4-b]pyridin-3-yl)-1H-benzoimidazole-4-carboxylic acid pyridin-3-ylamide]: the IC50 at Lyn kinase is 0.0236 µM; against c-Src kinase, 0.005 µM; against HER2 it was > 100 µM; on RET it was > 10 µM; with HCT-116 colon carcinoma, 0.488 µM; on CDK1, 0.0185 µM. In addition, the IC50 against VEGF-R2 is ~0.01 µM; in [1], 0.3 µM; at Aurora-A it was ~1 µM; in the assay with A375 malignant melanoma, 0.188 µM.

Take `CN(C)c1ccc(NC(=O)c2cccc3[nH]c(-c4n[nH]c5ncc(-c6cncc7ccccc67)cc45)nc23)cc1` [Cpd 49, 2-(5-isoquinolin-4-yl-1H-pyrazolo[3,4-b]pyridin-3-yl)-1H-benzoimidazole-4-carboxylic acid (4-dimethylamino-phenyl)-amide]: the IC50 on Lyn kinase was 0.00435 µM; against c-Src kinase, 0.00113 µM; at HER2, > 100 µM; on RET, ~1 µM; in the assay with HCT-116 colon carcinoma, 0.426 µM; against CDK1, 0.0648 µM. Besides, the IC50 is > 10 µM on VEGF-R2, 0.334 µM in [1], 0.154 µM against Aurora-A and 0.302 µM with A375 malignant melanoma.

Consider `CCN(CC)c1ccc(NC(=O)c2cccc3[nH]c(-c4n[nH]c5ncc(-c6cncc7ccccc67)cc45)nc23)c(C)c1` [Cpd 50, 2-(5-isoquinolin-4-yl-1H-pyrazolo[3,4-b]pyridin-3-yl)-1H-benzoimidazole-4-carboxylic acid (4-diethylamino-2-methyl-phenyl)-amide], for which the concentration for half-maximal inhibition (IC50) against Lyn kinase was 0.00521 µM; against c-Src kinase, 0.00104 µM; at HER2, > 100 µM; against RET, > 10 µM; with HCT-116 colon carcinoma, 0.455 µM; against CDK1 it was 0.0406 µM. The IC50 was > 100 µM at VEGF-R2, 0.259 µM in assay [1], 0.168 µM at Aurora-A and 0.242 µM in the assay on A375 malignant melanoma.

As for `CCN(CC)Cc1cccc2[nH]c(-c3n[nH]c4ncc(-c5cccnc5)cc34)nc12` [Cpd 52, diethyl-[2-(5-pyridin-3-yl-1H-pyrazolo[3,4-b]pyridin-3-yl)-1H-benzoimidazol-4-ylmethyl]-amine], the concentration for half-maximal inhibition (IC50) against Lyn kinase is 0.299 µM; on c-Src kinase, 0.57 µM; against HER2, > 100 µM; against RET it was ~10 µM; in the assay with HCT-116 colon carcinoma it was 0.345 µM; against CDK1, 0.0246 µM. The IC50 is 1.03 µM against VEGF-R2, 0.454 µM in [1], 3.62 µM against Aurora-A and 0.247 µM with A375 malignant melanoma.
